Experiments:
[1] = test system: Boophilus microplus, Biarra strain (resistant); test: In-vitro test for ovicidal effect on ticks (Biarra strain)
Protocol: In-vitro Test for Ovicidal Effect on Ticks
The emulsion concentrate so obtained is diluted with water to the application concentration desired in each case.
After immersion of, in each case, 10 female specimens of the various strains of ticks, the individual ticks are transferred to plastic dishes, the bottom of each of which is covered with a disc of filter paper.

[2] = test system: Boophilus, Biarra strain; test: In-vitro test for ovicidal and adulticidal effect on ticks; set-up: species or system Boophilus microplus
Protocol: In-vitro test for ovicidal and adulticidal effect on ticks
The ovicidal effect is determined as stated in Example 1.
In addition, the adulticidal effectiveness of the preparation of the given active compound after 24 hours is determined by ascertaining the voluntary movement of limbs and bodies of the immersed adult ticks after stimulation with a fine needle compared with the voluntary movement of limbs and bodies of the untreated adult ticks. The effectiveness is stated in %, 100% meaning that no movements of any kind of the limbs and bodies were any longer detectable, and 0% signifying that the ticks moved limbs and bodies in normal manner.
The results below were obtained in a similar manner to those in accordance with Example 4.

[3] = Table 1b, concentration giving 100% inhibition
[4] = Table 1b, concentration giving >50% inhibition
[5] = Table 5, concentration giving 50% inhibition
[6] = Table 5, concentration giving 100% inhibition
[7] = Table 2, concentration giving 100% inhibition
[8] = Table 2, concentration giving >50% inhibition

Row | SMILES | Ovicidal effect: 100% inhibition with the stated concentration of active compound [1, 3] [% by weight] | Ovicidal effect: >50% inhibition with the stated concentration of active compound [1, 4] [% by weight] | Ovicidal effect: 100% inhibition with the stated concentration of active compound [1, 7] [% by weight] | Ovicidal effect: >50% inhibition with the stated concentration of active compound [1, 8] [% by weight] | also measured
1 | CCCCN1CCCC1=Nc1ccc(Cl)cc1Cl [Compound 161] | 0.03 | 0.01 |  |  | 
2 | CCCN1CCCC1=Nc1ccc(Cl)c(Cl)c1 [Compound 61] | 0.03 | 0.01 |  |  | 
3 | CC=CCN1CCCC1=Nc1ccc(Cl)cc1C |  |  |  |  | Adulticidal and ovicidal effect: 50% inhibition with the stated concentration of active compound [2, 5]: 0.008 % by weight; Adulticidal and ovicidal effect: 100% inhibition with the stated concentration of active compound [2, 6]: 0.01 % by weight
4 | C=C(C)CN1CCCC1=Nc1ccc(Cl)cc1C |  |  |  |  | Adulticidal and ovicidal effect: 50% inhibition with the stated concentration of active compound [2, 5]: 0.02 % by weight; Adulticidal and ovicidal effect: 100% inhibition with the stated concentration of active compound [2, 6]: 0.03 % by weight
5 | CN1CCCC1=Nc1ccc(Br)cc1Cl [Compound 301] |  |  | 0.1 | 0.05 | 
6 | CN1CCCC1=Nc1ccc(Br)cc1Br [Compound 251] |  |  | 0.1 | 0.03 | 
7 | CCCCN1CCCC1=Nc1ccc(Br)cc1C [Compound 461] |  |  | 0.3 | 0.2 | 
8 | CCCCN1CCCC1=Nc1ccc(C)c(Br)c1 |  |  |  |  | Adulticidal and ovicidal effect: 50% inhibition with the stated concentration of active compound [2, 5]: 0.02 % by weight; Adulticidal and ovicidal effect: 100% inhibition with the stated concentration of active compound [2, 6]: 0.03 % by weight
9 | CCCCN1CCCC1=Nc1ccc(Cl)cc1Br [Compound 371] |  |  | 0.03 | 0.01 | 
10 | CCCN1CCCC1=Nc1ccc(F)c(Cl)c1 |  |  |  |  | Adulticidal and ovicidal effect: 50% inhibition with the stated concentration of active compound ([2]; Table 4, concentration giving 50% inhibition): 0.03 % by weight; Adulticidal and ovicidal effect: 100% inhibition with the stated concentration of active compound ([2]; Table 4, concentration giving 100% inhibition): 0.1 % by weight
11 | CCN1CCCC1=Nc1ccc(Br)cc1Cl [Compound 311] |  |  | 0.1 | 0.08 | 
12 | CCCCN1CCCC1=Nc1ccc(Br)c(C)c1 |  |  |  |  | Adulticidal and ovicidal effect: 50% inhibition with the stated concentration of active compound [2, 5]: 0.05 % by weight; Adulticidal and ovicidal effect: 100% inhibition with the stated concentration of active compound [2, 6]: 0.1 % by weight
13 | CN1CCCC1=Nc1ccc(Cl)c(Cl)c1 [Compound 191] | 0.3 | 0.1 |  |  | 
14 | CCN1CCCC1=Nc1ccc(Br)c(Cl)c1 [Compound 401] |  |  | 0.1 | 0.08 | 
15 | C=CCN1CCCC1=Nc1ccc(Cl)cc1Br [Compound 451] |  |  | 0.1 | 0.01 | 
16 | CC(C)N1CCCC1=Nc1ccc(Cl)c(Cl)c1 [Compound 121] | 0.1 | 0.03 |  |  | 
17 | CC(C)CN1CCCC1=Nc1ccc(Cl)cc1Cl [Compound 171] | 0.1 | 0.03 |  |  | 
18 | CCN1CCCC1=Nc1ccc(Cl)cc1Cl [Compound 21] | 0.1 | 0.01 |  |  | 
19 | CCCCN1CCCC1=Nc1ccc(Br)c(Cl)c1 [Compound 421] |  |  | 0.3 | 0.2 | 
20 | C=CCN1CCCC1=Nc1ccc(Br)cc1Br [Compound 281] |  |  | 0.1 | 0.03 | 
21 | Cc1cc(Cl)ccc1N=C1CCCN1CC(C)C [Compound 101] | 0.1 | 0.05 |  |  | 
22 | CCCN1CCCC1=Nc1ccc(Br)cc1Cl [Compound 321] |  |  | 0.3 | 0.1 | 
23 | C=CCN1CCCC1=Nc1ccc(Br)cc1CC [Compound 441] |  |  | 0.3 | 0.1 | 
24 | CN1CCCC1=Nc1cc(Cl)c(Cl)cc1Cl [Compound 131] | 0.03 | 0.01 |  |  | 

Row | SMILES | Ovicidal effect: 100% inhibition with the stated concentration of active compound [1, 3] [% by weight] | Ovicidal effect: >50% inhibition with the stated concentration of active compound [1, 4] [% by weight] | Ovicidal effect: 100% inhibition with the stated concentration of active compound [1, 7] [% by weight] | Ovicidal effect: >50% inhibition with the stated concentration of active compound [1, 8] [% by weight] | also measured
25 | CN1CCCC1=Nc1ccc(F)cc1Br [Compound 381] |  |  | 0.3 | 0.1 | 
26 | CCCN1CCCC1=Nc1ccc(Cl)cc1Cl [Compound 91] | 0.03 | 0.01 |  |  | 
27 | CC(C)N1CCCC1=Nc1ccc(Cl)cc1Cl [Compound 221] | 0.1 | 0.03 |  |  | 
28 | CCCN1CCCC1=Nc1ccc(F)cc1Br [Compound 391] |  |  | 0.03 | 0.02 | 
29 | CCCCN1CCCC1=Nc1ccc(Br)cc1Cl [Compound 331] |  |  | 0.3 | 0.1 | 
30 | CN1CCCC1=Nc1ccc(Cl)cc1Br [Compound 341] |  |  | 0.1 | 0.03 | 
31 | CCCCN1CCCC1=Nc1ccc(Br)cc1Br [Compound 291] |  |  | 0.3 | 0.1 | 
32 | Cc1cc(Cl)ccc1N=C1CCCN1C [Compound 141] | 0.3 | 0.1 |  |  | 
33 | CC(C)(C)N1CCCC1=Nc1ccc(Cl)cc1Cl [Compound 181] | 0.3 | 0.1 |  |  | 
34 | CCN1C(=Nc2ccc(Cl)c(Cl)c2)CCC1C (stereo not shown) [Compound 51] | 0.1 | 0.03 |  |  | 
35 | CCN1CCCC1=Nc1cc(Cl)c(Cl)cc1Cl [Compound 31] | 0.3 | 0.1 |  |  | 
36 | CCN1CCCC1=Nc1ccc(Cl)c(Cl)c1 [Compound 81] | 0.3 | 0.1 |  |  | 
37 | CC1CCC(=Nc2ccc(Cl)c(Cl)c2)N1C (stereo not shown) [Compound 201] | 0.3 | 0.1 |  |  | 
38 | CCCN1CCCC1=Nc1ccc(Br)cc1Br [Compound 271] |  |  | 0.3 | 0.2 | 
39 | CCCCN1CCCC1=Nc1ccc(Cl)cc1C [Compound 151] | 0.3 | 0.1 |  |  | 
40 | CCN1CCCC1=Nc1ccc(Br)cc1Br [Compound 261] |  |  | 0.1 | 0.05 | 
41 | CCN1CCCC1=Nc1ccc(Cl)cc1Br [Compound 351] |  |  | 0.1 | 0.03 | 
42 | C=CCN1CCCC1=Nc1ccc(Br)cc1C [Compound 431] |  |  | 0.1 | 0.03 | 
43 | CCCN1CCCC1=Nc1ccc(Cl)cc1Br [Compound 361] |  |  | 0.1 | 0.03 | 
44 | C=CCN1CCCC1=Nc1ccc(F)c(Br)c1 [Compound 471] |  |  | 0.1 | 0.08 | 
45 | C=CCN1CCCC1=Nc1ccc(Br)c(Cl)c1 [Compound 411] |  |  | 0.3 | 0.1 | 
46 | Cc1cc(Cl)ccc1N=C1CCCN1C(C)(C)C [Compound 231] | 0.3 | 0.1 |  |  | 
47 | CC(C)CN1CCCC1=Nc1ccc(Cl)c(Cl)c1 [Compound 111] | 0.1 | 0.03 |  |  | 

From patent US4077981A, “Certain 1-alkyl-2-dichlorophenyliminopyrrolidines” (Bayer Aktiengesellschaft, priority 1968, dated 1978)
